The source of these data is paper PMC12539867, “Systematic identification of terpene synthases from sacred lotus (Nelumbo nucifera) and heterologous biosynthesis of the insecticidal and antimicrobial compound γ-eudesmol” (Horticulture Research, 2025).

Molecules are shown by their SMILES.

Experiment [1] concerns T1, NnTPS10.
T1 construct: TPS-a; 565 residues; codon-optimised; purified from E. coli for kinetics; S. cerevisiae JCR27 for mutants; N314, L530, V537; D461-Y537-D541 triad also printed
Put plainly: steady-state kinetics, purified enzyme. Type of experiment: biochemical, Nelumbo nucifera. Particulars: 25 °C, pH 7.5.

Experiment [2] deals with T2, NnTPS5 (Nelumbo nucifera, UniProt A0A822ZHR2).
T2 construct: gene HUJ06_002290; codon-optimised; S. cerevisiae JCR27 with NnTPS6 or NnTPS7 and GGPPS
T2 sequence (A0A822ZHR2 41-812): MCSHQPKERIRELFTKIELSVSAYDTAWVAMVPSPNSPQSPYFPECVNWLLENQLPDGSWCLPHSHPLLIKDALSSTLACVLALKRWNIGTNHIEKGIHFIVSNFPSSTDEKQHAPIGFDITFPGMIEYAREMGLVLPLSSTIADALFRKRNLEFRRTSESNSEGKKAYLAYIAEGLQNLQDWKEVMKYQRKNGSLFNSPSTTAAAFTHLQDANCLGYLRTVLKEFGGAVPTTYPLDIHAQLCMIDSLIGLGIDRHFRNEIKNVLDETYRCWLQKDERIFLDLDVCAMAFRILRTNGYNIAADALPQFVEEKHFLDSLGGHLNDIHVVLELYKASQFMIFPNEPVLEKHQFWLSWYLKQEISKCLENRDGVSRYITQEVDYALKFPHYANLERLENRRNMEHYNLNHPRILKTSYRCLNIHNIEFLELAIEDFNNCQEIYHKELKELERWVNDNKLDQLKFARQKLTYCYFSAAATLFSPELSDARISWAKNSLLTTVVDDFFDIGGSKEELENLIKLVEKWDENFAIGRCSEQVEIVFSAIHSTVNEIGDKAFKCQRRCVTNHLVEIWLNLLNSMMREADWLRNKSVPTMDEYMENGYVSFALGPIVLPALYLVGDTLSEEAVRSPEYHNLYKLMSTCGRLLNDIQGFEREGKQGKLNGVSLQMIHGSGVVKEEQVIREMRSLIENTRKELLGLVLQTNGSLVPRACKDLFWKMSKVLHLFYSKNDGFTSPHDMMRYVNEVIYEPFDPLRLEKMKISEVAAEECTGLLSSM
Put plainly: yeast co-expression with GGPPS and NnTPS6 or NnTPS7, GC-MS of ent-kaurene. Type of experiment: cell-based. To be noted: substrate formed in the cell.

For orientation: Km means the substrate concentration at which the rate is half of its maximum. In the case of `CC(C)=CCC/C(C)=C/CC/C(C)=C/COP(=O)(O)OP(=O)(O)O` [FPP], the Michaelis-Menten constant (Km) in experiment [1] stood at 16.7 µM.

With `C=C1CC[C@@H]2C(C)(C)CCC[C@@]2(C)[C@@H]1CC/C(C)=C/COP(=O)(O)OP(=O)(O)O` [ent-CPP], the “yeast co-expression with GGPPS and NnTPS6 or NnTPS7, GC-MS of ent-kaurene” value in experiment [2] was “combining NnTPS6, NnTPS5, and GGPPS, a new product (D1) can be identified as ent-kaurene”.
